Patent publication US7064120B2, “Tricyclic pyridyl carboxamides and derivatives thereof tocolytic oxytocin receptor antagonists” (Wyeth, priority 2001, dated 2006)

Each compound was assayed against T1, human vasopressin V1a receptor subtype (Homo sapiens, UniProt P37288) (assay: Vasopressin binding in CHO cell membranes expressing human vasopressin V1a subtype receptors ([3H]Manning ligand radioligand binding)). Conditions: 100 nM.
T1 construct: host or cells: CHO cells, stably transfected (pZeoSV vector for the Thibonnier line)
T1 sequence (P37288 whole entry): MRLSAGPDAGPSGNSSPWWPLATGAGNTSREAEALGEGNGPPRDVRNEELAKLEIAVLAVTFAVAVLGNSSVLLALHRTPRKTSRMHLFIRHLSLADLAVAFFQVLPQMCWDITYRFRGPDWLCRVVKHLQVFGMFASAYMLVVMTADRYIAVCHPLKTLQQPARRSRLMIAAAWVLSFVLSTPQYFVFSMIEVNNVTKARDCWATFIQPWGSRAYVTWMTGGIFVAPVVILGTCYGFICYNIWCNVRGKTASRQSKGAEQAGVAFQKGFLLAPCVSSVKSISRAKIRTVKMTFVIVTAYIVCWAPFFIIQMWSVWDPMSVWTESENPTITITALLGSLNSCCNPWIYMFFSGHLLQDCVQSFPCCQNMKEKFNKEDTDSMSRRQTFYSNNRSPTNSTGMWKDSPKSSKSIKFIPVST
Method: Vasopressin Binding in Chinese Hamster Ovary Cell Membranes Expressing Human Vasopressin V1a Subtype Receptors
The trypsin is removed by aspiration and the cells dislodged by tapping. Cell Culture medium (e.g. 30 mL for 1:30 split) is immediately added and mixed well to inactivate trypsin. 1 mL of detached cells is added to new culture flasks containing fresh cell culture medium (e.g., into 25 mL per T-150 flask), and mixed gently. The cells are incubated at 37° C. in 5% CO2. The medium is changed at 3 to 4 days interval (or as appropriate). […] All steps are done under sterile conditions.
The cells are washed twice gently with Hank's Balanced Salt solution (e.g,. use 10 mL per T-150 flask). […] The contents are transferred to centrifuge tubes (50 mL) kept in an ice bath. All subsequent steps are done at 4° C. The tubes are centrifuged at 300×g for 15 min (1380 rpm on SORVAL, Model RT6000D, using the rotor for 50 mL tubes). The supernatant is discarded and the cells suspended in homogenizing buffer(10 mM Tris-HCl containing 0.25 M sucrose and 1 mM EDTA, pH 7.4) ensuring that the volume of the buffer is about ten times the volume of the cell pellet. The cells are pooled into a centrifuge tube (50 mL) and homogenized with Polytron at setting 6 for 10 sec. The homogenate is transferred into a Potter-Elvjehm homogenizer and homogenized with 3 strokes. The homogenate is centrifuged at 1500×g for 10 min at 4° C. (3100 rpm using SORVAL, model RT6000D, using the rotor for 50 mL tubes). The pellet is discarded. The supernatant is centrifuged at 100,000×g for 60 min. at 4° C. (Beckman L8-80M ultracentrifuge; spin at 37,500 rpm with rotor type 70 Ti for 50 mL tubes; 38,000 rpm with type 80Ti for 15 mL tubes; or 35,800 rpm with rotor type 45Ti). The supernantant is discarded and the pellet suspended in 3 to 4 mL of Tris buffer (50 mM TRIS-HCl, pH 7.4). The protein content is estimated by the Bradford or Lowry method. The volume of the membrane suspension is adjusted with the membrane buffer (50 mM Tris-HCl containing 0.1% BSA and 0.1 mM PMSF) to give 3.0 mg/mL (or as appropriate) of protein. The membranes are aliquoted and stored at −70° C.
In wells of a 96-well format microtiter plate, is added 90, 110 or 130 μL (to make up a final volume of 200 μL) of assay buffer containing 50 mM of Tris-HCl (pH 7.4), BSA (heat inactivated, protease-free), […], 1 mg % aprotinin, 1 mg % leupeptin, 2 mg % 1,10-phenanthroline, 10 mg % trypsin inhibitor, and 0.1 mM PMSF. The inhibitors are added on the day of the experiment. The components are mixed at room temperature, and then kept in ice bath following adjustment of the pH to 7.4. […] 20 μL of 50% DMSO is added for Manning and other peptide ligands and the assay buffer volume is adjusted accordingly. To each well is added 50 μL of frozen membrane suspension thawed immediately prior to use and diluted in the assay buffer to the required concentration (equivalent to 25 to 50 μg of protein/well as needed). 20 μL of 8 nM [^3H]Manning ligand in the assay buffer, prepared just before use, is added, and incubated at room temperature for 60 min. shaking the plate on a mechanical shaker for the first 15 min. The incubation is stopped by rapid filtration of the plate contents followed by wash with ice-cold buffer (50 mM Tris-HCl, pH 7.4) using a cell harvester (Tomtek and Printed filtermat-B filter paper). The filter paper is thoroughly dried (7–12 min. in a microwave oven) and impregnated with MeltiLex B/H melt-on scintillation wax sheets and the radioactivity counted in a betaplate scintillation counter.
Binding data is either reported as percent inhibition at a certain concentration or if an IC50 was calculated, as a nanomolar concentration.

In order of falling inhibition at 0.1 µM:
1. COc1cccc(-c2ccc(C(=O)N3Cc4ccc(C(=O)N(C)CCc5ccncc5)n4Cc4ccccc43)cc2OC)c1 [Example 135, 10-[(2,3′-Dimethoxy-[1,1′-biphenyl]-4-yl)carbonyl]-N-methyl-N-[2-(4-pyridinyl)ethyl]-10,11-dihydro-5H-pyrrolo[2,1-c][1,4]benzodiazepine-3-carboxamide]  68%
2. COc1cc(C(=O)N2Cc3ccc(C(=O)N(C)Cc4cccnc4)n3Cc3ccccc32)ccc1-c1ccccc1C [Example 106, 10-[(2-Methoxy-2′-methyl-[1,1′-biphenyl]-4-yl)carbonyl]-N-methyl-N-(3-pyridinylmethyl)-10,11-dihydro-5H-pyrrolo[2,1-c][1,4]benzodiazepine-3-carboxamide]  68%
3. Cc1ccccc1-c1ccc(C(=O)N2Cc3ccc(C(=O)N(C)CCc4ccncc4)n3Cc3ccccc32)cc1C [Example 127, 10-[(2,2′-Dimethyl-[1,1′-biphenyl]-4-yl)carbonyl]-N-methyl-N-[2-(4-pyridinyl)ethyl]-10,11-dihydro-5H-pyrrolo[2,1-c][1,4]benzodiazepine-3-carboxamide]  66%
4. COc1cc(C(=O)N2Cc3ccc(C(=O)N(C)CCc4ccncc4)n3Cc3ccccc32)ccc1-c1cccc2ccccc12 [Example 134, 10-[3-Methoxy-4-(naphthalen-1-yl)benzoyl]-N-methyl-N-[2-(4-pyridinyl)ethyl]-10,11-dihydro-5H-pyrrolo[2,1-c][1,4]benzodiazepine-3-carboxamide]  30%
5. COc1cc(C(=O)N2Cc3ccc(C(=O)NCc4ccccn4)n3Cc3ccccc32)ccc1-c1ccccc1C [Example 28, 10-[(2-Methoxy-2′-methyl-[1,1′-biphenyl]-4-yl)carbonyl]-N-(2-pyridinylmethyl)-10,11-dihydro-5H-pyrrolo[2,1-c][1,4]benzodiazepine-3-carboxamide]  28%
6. COc1cccc(-c2ccc(C(=O)N3Cc4ccc(C(=O)NCc5ccccn5)n4Cc4ccccc43)cc2C)c1 [Example 25, 10-[(3′-Methoxy-2-methyl-[1,1′-biphenyl]-4-yl)carbonyl]-N-(2-pyridinylmethyl)-10,11-dihydro-5H-pyrrolo[2,1-c][1,4]benzodiazepine-3-carboxamide]  21%
7. COc1cc(C(=O)N2Cc3ccc(C(=O)N4CCN(c5ccncc5)CC4)n3Cc3ccccc32)ccc1-c1cccc2ccccc12 [Example 121, {10-[3-Methoxy-4-(naphthalen-1-yl)benzoyl]-10,11-dihydro-5H-pyrrolo[2,1-c][1,4]benzodiazepin-3-yl}[4-(4-pyridinyl)-1-piperazinyl]methanone]  17%
8. COc1cc(C(=O)N2Cc3ccc(C(=O)N(C)CCc4ccncc4)n3Cc3ccccc32)ccc1-n1c(C)ccc1C [Example 147, 10-[4-(2,5-Dimethyl-1H-pyrrol-1-yl)-3-methoxybenzoyl]-N-methyl-N-[2-(pyridin-4-yl)ethyl]-10,11-dihydro-5H-pyrrolo[2,1-c][1,4]benzodiazepine-3-carboxamide]  15%
9. COc1cc(-c2ccccc2C)c(Cl)cc1C(=O)N1Cc2ccc(C(=O)N(C)Cc3cccnc3)n2Cc2ccccc21 [Example 107, 10-[(6-Chloro-3-methoxy-2′-methyl-[1,1′-biphenyl]-4-yl)carbonyl]-N-methyl-N-(3-pyridinylmethyl)-10,11-dihydro-5H-pyrrolo[2,1-c][1,4]benzodiazepine-3-carboxamide]  12%
10. O=C(c1ccc2n1Cc1ccccc1N(C(=O)c1ccc(-c3cccc4ccccc34)cc1Cl)C2)N1CCN(c2ccncc2)CC1 [Example 124, {10-[2-Chloro-4-(naphthalen-1-yl)benzoyl]-10,11-dihydro-5H-pyrrolo[2,1-c][1,4]benzodiazepin-3-yl}[4-(4-pyridinyl)-1-piperazinyl]methanone]  11%
11. COc1cc(C(=O)N2Cc3ccc(C(=O)NCc4cccnc4)n3Cc3ccccc32)ccc1-c1cccc2ccccc12 [Example 44, 10-[3-Methoxy-4-(naphthalen-1-yl)benzoyl]-N-(3-pyridinylmethyl)-10,11-dihydro-5H-pyrrolo[2,1-c][1,4]benzodiazepine-3-carboxamide]  11%
12. COc1cc(-c2ccccc2C)c(Cl)cc1C(=O)N1Cc2ccc(C(=O)N3CCN(c4ccncc4)CC3)n2Cc2ccccc21 [Example 119, {10-[(6-Chloro-3-methoxy-2′-methyl-[1,1′-biphenyl]-4-yl)carbonyl]-10,11-dihydro-5H-pyrrolo[2,1-c][1,4]benzodiazepin-3-yl}[4-(4-pyridinyl)-1-piperazinyl]methanone]  9%
13. COc1ccccc1-c1ccc(C(=O)N2Cc3ccc(C(=O)N4CCN(c5ccncc5)CC4)n3Cc3ccccc32)cc1OC [Example 122, {10-[(2,2′-Dimethoxy-[1,1′-biphenyl]-4-yl)carbonyl]-10,11-dihydro-5H-pyrrolo[2,1-c][1,4]benzodiazepin-3-yl}[4-(4-pyridinyl)-1-piperazinyl]methanone]  9%
14. COc1cc(C(=O)N2Cc3ccc(C(=O)N(C)Cc4cccnc4)n3Cc3ccccc32)ccc1-c1cccc2ccccc12 [Example 109, 10-[3-Methoxy-4-(naphthalen-1-yl)benzoyl]-N-methyl-N-(3-pyridinylmethyl)-10,11-dihydro-5H-pyrrolo[2,1-c][1,4]benzodiazepine-3-carboxamide]  7%
15. COc1ccccc1-c1ccc(C(=O)N2Cc3ccc(C(=O)NCc4ccccn4)n3Cc3ccccc32)cc1C [Example 24, 10-[(2′-Methoxy-2-methyl-[1,1′-biphenyl]-4-yl)carbonyl]-N-(2-pyridinylmethyl)-10,11-dihydro-5H-pyrrolo[2,1-c][1,4]benzodiazepine-3-carboxamide]  7%
16. COc1ccccc1-c1ccc(C(=O)N2Cc3ccc(C(=O)NCc4cccnc4)n3Cc3ccccc32)cc1C [Example 36, 10-[(2′-Methoxy-2-methyl-[1,1′-biphenyl]-4-yl)carbonyl]-N-(3-pyridinylmethyl)-10,11-dihydro-5H-pyrrolo[2,1-c][1,4]benzodiazepine-3-carboxamide]  -3%
17. COc1cccc(-c2cc(OC)c(C(=O)N3Cc4ccc(C(=O)NCc5ccccn5)n4Cc4ccccc43)cc2Cl)c1 [Example 30, 10-[(6-Chloro-3,3′-dimethoxy-[1,1′-biphenyl]-4-yl)carbonyl]-N-(2-pyridinylmethyl)-10,11-dihydro-5H-pyrrolo[2,1-c][1,4]benzodiazepine-3-carboxamide]  -7%
18. COc1cccc(-c2cc(OC)c(C(=O)N3Cc4ccc(C(=O)NCCc5ccccn5)n4Cc4ccccc43)cc2Cl)c1 [Example 56, 10-[(6-Chloro-3,3′-dimethoxy-[1,1′-biphenyl]-4-yl)carbonyl]-N-[2-(2-pyridinyl)ethyl]-10,11-dihydro-5H-pyrrolo[2,1-c][1,4]benzodiazepine-3-carboxamide]  -11%

In order of falling “V1a % inhibition @ 100 nM” value:
1. COc1cc(C(=O)N2Cc3ccc(C(=O)N4CCN(c5ccncc5)CC4)n3Cc3ccccc32)ccc1-c1ccccc1C [Example 118]  62%
2. COc1cccc(-c2ccc(C(=O)N3Cc4ccc(C(=O)NCc5ccncc5)n4Cc4ccccc43)cc2OC)c1 [Example 98]  24%
3. Cc1cc(C(=O)N2Cc3ccc(C(=O)NCCc4ccccn4)n3Cc3ccccc32)ccc1-c1ccccc1C(F)(F)F [Example 61, 10-{[2-Methyl-2′-trifluoromethyl=[1,1′-biphenyl]-4-yl]carbonyl}-N-[2-(2-pyridinyl)ethyl]-10,11-dihydro-5H-pyrrolo[2,1-c][1,4]benzodiazepine-3-carboxamide]  6%
